The structures appear in SMILES notation.
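Also: Luminescence-based viability readout, five doses per compound, normalized against on-plate DMSO and empty-well controls, followed by dose-response curve fitting for every drug.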

The subject of this assay is HCT116. The assay is described as follows: efficacy (fitted maximal change in viability relative to DMSO control); higher = less cytotoxic (negative = loss of viability). As to conditions: 48 h.
Take `N#Cc1ccc(NC(=O)Nc2ccccc2Br)c2nn[nH]c12`: the efficacy was -26%.
To `CC(C)(C(=O)NCC(F)(F)C(F)(F)F)C(=O)N[C@@H]1C(=O)Nc2ccccc2-c2ccccc21` belongs -10.6%.
As for `CC(C)(C)C(=O)Oc1ccc2c(c1)nc(NC(=O)c1cccc([N+](=O)[O-])c1)n2CCCO`, the figure is -19.1%; as for `CC(C)(N[S+](=O)([O-])c1ccc2c(Cl)cnc(NC(=N)N)c2c1)C(=O)O`, -7.17%.
As for `CC(C)(O)c1coc([S+](=O)([O-])NC(=O)Nc2c3c(cc4c2CCC4)CCC3)c1`, the figure is 7.83%.
For the compound `CC(C)(O)CCc1ccc(OCc2cc(-c3cccc(OC(F)F)c3)c3ncccc3c2)cc1`, the efficacy was -82%.
As for `CC(C)c1c2cc(-c3ccnc(N[C@H]4CC[C@H](NC5CCOCC5)CC4)n3)ccc2nn1C`, the efficacy is -72.3%.
As for `CC(C)n1cc(-c2ccc3c(c2)N(C)CC3)c2c(N[S+](=O)([O-])c3ccn(C)n3)ccnc21`, the figure is -24.7%.
To `Cc1nc2cc(C(=O)N3CCC4(CC3)CC(=O)c3c(cnn3C(C)C)C4)ccc2[nH]1` belongs -35.5%; to `Cc1noc(-c2ccc(CSCCC(=O)O)cc2)c1NC(=O)OC(C)c1ccccc1Cl` (stereo not drawn), -36.3%; to `Cc1cnc(-c2cc(N3CCN(C(=O)CC[S+](C)(=O)[O-])CC3)ncc2Cl)c(C)c1`, -93.8%.
As for `Cc1cc(SCc2sc(-c3ccc(C(F)(F)F)cc3)nc2C)ccc1OCC(=O)O`, the figure is -13.6%; as for `Cc1cc2c(cc1C1(c3ccc(C(=O)O)cn3)CC1)C(C)(C)CCC2(C)C`, -25.8%.
As to `CC1=CC=CC=C1N2\C(=N/C3=C(C(=CC=C3)C)C2=O)C[N]4C=NC5=C4N=CN=C5N`, the efficacy was -13.6%.
To `Cc1ccnc(N[S+](=O)([O-])c2ccc(NC(=O)Nc3ccc([S+](=O)([O-])Nc4nccc(C)n4)cc3)cc2)n1` belongs -21.3%.
As for `Cc1c(Cn2c(C)nc3c(C(=O)O)cc(N4CCOCC4)cc32)cccc1C(F)(F)F`, the figure is -10.9%.
`Cc1n[nH]c2ncc(C(=O)N3CCC[C@H]3c3ccc(Cl)cc3)cc12`: the efficacy was -17.4%.
Regarding `CC1COC2(CCN(CC2)C/3=N/C(=O)C4=CC(=CC(=C4S3)[N+]([O-])=O)C(F)(F)F)O1` (stereo not drawn), the efficacy is -19.7%.
As for `CCC(C)N(C)C(=O)c1cc2ccccc2c(-c2ccccc2Cl)n1` (stereo not drawn), the figure is -46.4%; as for `CCc1c(C(=O)NNC(=O)[C@@H](O)c2cc(F)cc(F)c2)ccc(O)c1C`, -5.46%.
To `CCc1ccc(/C=C2/SC(=S)NC2=O)cc1` belongs -29%.
As for `CCN(CC)C(=O)Cc1csc(N[S+](=O)([O-])c2cccc(Cl)c2C)n1`, the figure is -27.3%; as for `CCN([C@H]1CC[C@@H](CC1)N(C)CCOC)C2=C(C)C(=CC(=C2)C#CCN3CCOCC3)C(=O)NC\C4=C(C)\C=C(\C)NC4=O`, -10.4%.
`CCOC(=O)C(C)OC1=CC=CC2=C1\C=C/N(CC(=O)NC3=CC=C4OCCOC4=C3)C2=O` (stereo not drawn): the efficacy is -19.6%.
For `CCn1c(C(=O)N(C2CC2)C2CC2)cc2c3c(ncn3C)c(Nc3cc(C)n(C)n3)nc21`, the efficacy was -25.7%.
As for `Cc1cnc(NC(=O)c2cc(Oc3cnc(C(=O)N(C)C)nc3)c3cc(C)oc3c2)cn1`, the figure is -6.07%; as for `CN(C)C(=O)[C@H](O)[C@H](Cc1ccccc1)NC(=O)c1cc2cc(Cl)ccc2[nH]1`, -14.2%; as for `Cc1ccc(NC(=O)c2cccc(N(C)C)c2)cc1NC(=O)c1ccc(O)cc1`, -21.6%.
As for `CN(C)CCNC(=O)NC[C@H]1CC[C@@H]2[C@H](O1)c1cc(C(F)(F)F)ccc1N[C@H]2c1ccccc1`, the efficacy was -63.4%.
As for `Cc1cn2cc(C(=O)N(C)CCO)cc(N[C@@H]3CCOc4cccc(C)c43)c2n1`, the figure is -27.6%; as for `CN(CCOc1ccc(-c2ccc3c(c2)OCO3)cc1C(C)(C)C)CC(=O)O`, -58.3%.
To `CN1C(=O)N(c2cc(Cl)cc(Cl)c2)C(=O)[C@]12CN(Cc1cc(C(=O)O)cs1)C[C@H]2c1ccc(C#N)cc1` belongs -6.34%; to `CN1CCN(c2ccc([N+](=O)[O-])c3no[n+]([O-])c23)CC1`, -19.8%.
As for `CN1CCN(CC1)C\2=C\3/C=C(/C)SC3=N/C4=CC=CC=C4N2`, the figure is -17.1%; as for `CN1CCN(CCCNc2ncc(Cl)c(-c3cc4c(C(=O)NC5CC5)cccc4s3)n2)CC1`, -28.8%; as for `COc1cc(NC(=O)c2ccc(-c3ccc(Cl)cc3)o2)cc(OC)c1`, -43.9%.
`COc1ccc([S+](=O)([O-])NCc2ccc(C(=O)NCCc3ccc(Cl)cn3)cc2)cc1`: the efficacy was -62.6%.
Consider `COc1ccc(Cc2ccc(NC(N)=O)cc2)cc1-c1cccc(Cl)c1`, for which the efficacy is -74.8%.
With `COc1ccc(CCC(=O)Nc2nc3ccc(Cl)cc3s2)cc1OC`, the efficacy was -14.1%.
As for `COc1ccc(COc2cc3oc(=O)c4cc(C(C)O)ccc4c3cc2OC)cc1` (stereo not drawn), the figure is -22%; as for `C=C[C@H]1CN2CC[C@H]1C[C@H]2[C@H](O)c1ccnc2ccc(OC)cc12`, -34.1%; as for `COc1nccc(-c2c(-c3ccc(F)cc3)ncn2C2CCC(O)CC2)n1` (stereo not drawn), -34.5%.
To `COc1nccc(-c2c(-c3ccc(F)cc3)ncn2C2CCNCC2)n1` belongs -39.7%.
As for `C=CC(=O)N[C@H]1CN(c2nc(Nc3cn(C)nc3OC)c3ncn(C)c3n2)C[C@@H]1F`, the figure is -68%; as for `COC1CCC(C(=O)c2ccc3nc4c(cc3c2)CCCO4)CC1` (stereo not drawn), -17.2%.
Consider `COC[C@@H](c1ccc(C(F)(F)F)cc1)N1CCN(C2(C)CCN(C(=O)c3c(C)ncnc3C)CC2)C[C@@H]1C`, for which the efficacy is -15.4%.
Take `CONC(=O)c1ccccc1Nc1cc(Nc2cc(C)nn2C(C)C)ncc1Cl`: the efficacy is -40.7%.
For the compound `C[C@H](c1ccc(F)cc1CCCC(=O)O)N(c1cc(F)ccc1F)[S+](=O)([O-])c1ccc(Cl)cc1`, the efficacy was -30.3%.
Take `Cc1noc(-c2ccc(-c3ccc(C4(C(=O)O)CC4)cc3)cc2)c1NC(=O)O[C@H](C)c1ccccc1`: the efficacy is -40.6%.
Consider `C[C@H](NC(=O)Cc1cc(F)cc(F)c1)C(=O)N[C@@H]1C(=O)N(C)c2ccccc2-c2ccccc21`, for which the efficacy was -23.7%.
To `C=CC(=O)N1C[C@H](Nc2ncnc3[nH]ccc23)CC[C@@H]1C` belongs -26.7%; to `C[C@](Cc1c[nH]c2ccccc12)(NC(=O)OC1C2CC3CC(C2)CC1C3)C(=O)NC[C@H](NC(=O)CCC(=O)O)c1ccccc1` (stereo partly drawn), 9.82%.
For `C[C@@]1(C(=O)Nc2ccc(F)nc2)CCCN1c1nc(Nc2cc(C3CC3)[nH]n2)c2cccn2n1`, the efficacy is -59.3%.
As to `Cn1cc(/C=C2\C(=O)Nc3cccnc32)c2ccccc21`, the efficacy was -35.8%.
As for `Cn1cc(-c2ccc3c(c2)CCN3C(=O)Cc2cccc(C(F)(F)F)c2)c2c(N)ncnc21`, the figure is -17.9%.
As for `Cn1cc(-c2ccc(-c3cncc(Cl)c3N3CCC4(CCNC4=O)CC3)cc2)cn1`, the figure is -49.2%.
To `Cn1cc(-c2c[nH]c3ncnc(N4CCOCC4)c23)cn1` belongs -31.9%; to `Cn1ccc2cc3c(cc21)CCN3C(=O)Nc1cccnc1`, -22.8%; to `Clc1cccc(-n2nnnc2NCc2ccccc2Oc2ccccn2)c1Cl`, -32%.
Take `O=C(N[C@H]1CN2CCC1CC2)c1ccc(Cl)cc1`: the efficacy is -55.8%.
To `O=C(Nc1ccc2c(c1)CCN(Cc1ncn[nH]1)C2)c1ccccc1-c1ccc(C(F)(F)F)cc1` belongs 17.5%; to `O=C1NC(=O)/C(=C/c2ccc3c(c2)OC(F)(F)O3)S1`, -22.5%.
As for `O=C1NC(=O)/C(=C\c2ccc(-c3ccc(F)cc3)o2)S1`, the figure is -23.2%.
To `O=C(Nc1cccnc1)c1cc(-c2ccnc(F)c2)ccc1OCc1ccccc1` belongs -24.6%; to `N#CN1CCC[C@@H](n2nc(-c3ccc(Oc4ccc(F)cc4F)cc3)c(C(N)=O)c2N)C1`, -38.1%; to `NC(=O)c1cccc(N)c1`, -10.2%.
Consider `NC(CC1c2ccccc2Oc2ccccc21)(C(=O)O)C1CC1C(=O)O` (stereo not drawn), for which the efficacy was -10.8%.
As for `Nc1nccc(-c2c(-c3ccc(F)cc3)ncn2C2CCCCC2)n1`, the figure is -55.4%; as for `Nc1ncnc2c1C(=O)N(c1ccc([C@H]3CC[C@H](CC(=O)O)CC3)cc1)CCO2`, -5.95%; as for `Nc1nc(OC(c2ccc(-c3cccc(F)c3)cc2)C(F)(F)F)cc(-c2ccc(C[C@H](N)C(=O)O)cc2)n1` (stereo partly drawn), -21.2%.
To `O=C(NC1CCOCC1)c1ccc(-c2cc(-c3c[nH]nc3-c3ccccn3)ccn2)cc1` belongs -24%; to `O=C1NC(=O)/C(=C/c2ccc3nccnc3c2)S1`, -27.3%; to `O=C1\C=C(/OC2=C1C=CC=C2C3=CC=CC=C3)N4CCOCC4`, -24.3%.
As for `O=C(O)/C(S)=C/c1ccc(I)cc1`, the figure is -6.45%; as for `O=[S+]([O-])(O)c1ccc2cc(/N=N/c3cc([S+](=O)([O-])O)c4cccnc4c3O)ccc2c1`, -23.5%; as for `O=C(NC[C@H](O)CN1CCc2ccccc2C1)c1cc(NC2COC2)ncn1`, 13%.
In the case of `c1cc(-c2sc(-c3ccncc3)c(-c3ccncc3)c2-c2ccncc2)ccn1`, the efficacy was -13.8%.
For the compound `O=C1Cc2cc(C(=O)NC3C[C@H]4CC[C@@H](C3)N4[S+](=O)([O-])CC3CCN(CCCC(F)(F)F)CC3)c(Cl)cc2N1` (stereo partly drawn), the efficacy is -9.6%.

The record behind these values is the supplement of paper PMC10290057.
